This assay has as its system L1210 leukemia ip in BDF1 mice, survival T/C. Briefly: NCI In Vivo Anticancer Drug Screen. Data for tumor model L1210 Leukemia (intraperitoneal) in B6D2F1 (BDF1) mice. The conditions noted are these: endpoint: mean survival time, higher = longer survival. In a few lines: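 Each compound was tested against a transplantable tumor grown in mice. The endpoint was survival, with treated animals benchmarked against vehicle controls as a simple ratio.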

Each structure is given as a SMILES string. Values joined by “and” are separate entries in the source; they are usually repeats but may differ in a detail not shown here. Equal values may be shown once. Inconclusive results and toxic doses are left out.

For the compound `CCOCC(=O)CC(C)(C)C`, the T/C is, setting by setting: (dose: 50.0 mg/kg/injection, schedule: Q01DX009 (ip), vehicle: saline with Tween-80) 92 % of control; (dose: 100.0 mg/kg/injection, schedule: Q01DX009 (ip), vehicle: saline with Tween-80) 92 % of control; (dose: 200.0 mg/kg/injection, schedule: Q01DX009 (ip), vehicle: saline with Tween-80) 103 % of control.
Take `Cc1cnc(SCc2ccc(Cl)cc2)nc1N(Cc1ccccc1)Cc1ccccc1`: for the setting “dose: 100.0 mg/kg/injection, schedule: Q01DX Z (ip), vehicle: methylcellulose (MC)”, the T/C was 87 % of control.
Turning to `NC(=O)N/N=C1\CC2CC1C1C=CCC21` (stereo not drawn), the T/C is, setting by setting: (dose: 50.0 mg/kg/injection, schedule: Q01DX001 (ip), vehicle: carboxymethylcellulose (CMC)) 102 % of control; (dose: 100.0 mg/kg/injection, schedule: Q01DX001 (ip), vehicle: carboxymethylcellulose (CMC)) 93 % of control; (dose: 200.0 mg/kg/injection, schedule: Q01DX001 (ip), vehicle: carboxymethylcellulose (CMC)) 102 % of control.
Turning to `Cc1cc(NC(=O)/C=C/c2ccc([N+](=O)[O-])cc2Cl)ccc1S(=O)(=O)F`, the T/C reads like this: (dose: 100.0 mg/kg/injection, schedule: Q01DX001 (ip), vehicle: saline with Tween-80) 92 % of control; (dose: 200.0 mg/kg/injection, schedule: Q01DX001 (ip), vehicle: saline with Tween-80) 93 % of control; (dose: 400.0 mg/kg/injection, schedule: Q01DX001 (ip), vehicle: saline with Tween-80) 92 % of control.
Regarding `CC(=O)NC1=C(N2CC2C)C(=O)C(NC(C)=O)=C(N2CC2C)C1=O` (stereo not drawn), the T/C runs as follows: (dose: 0.25 mg/kg/injection, schedule: Q01DX009 (ip), vehicle: saline) 109 % of control; (dose: 0.31 mg/kg/injection, schedule: Q01DX Z (ip), vehicle: saline) 103 % of control; (dose: 0.5 mg/kg/injection, schedule: Q01DX009 (ip), vehicle: saline) 103 % of control; (dose: 0.63 mg/kg/injection, schedule: Q01DX Z (ip), vehicle: saline) 103 % of control; (dose: 1.0 mg/kg/injection, schedule: Q01DX009 (ip), vehicle: saline) 114 % of control; (dose: 1.25 mg/kg/injection, schedule: Q01DX Z (ip), vehicle: saline) 106 % of control. The T/C is 120 % of control (dose: 2.0 mg/kg/injection, schedule: Q01DX009 (ip), vehicle: saline); 184 % of control (dose: 2.5 mg/kg/injection, schedule: Q01DX009 (ip), vehicle: saline); 118 % of control (dose: 5.0 mg/kg/injection, schedule: Q01DX001 (ip), vehicle: saline); 108 % of control (dose: 5.0 mg/kg/injection, schedule: Q01DX009 (ip), vehicle: saline); 171 % of control (dose: 10.0 mg/kg/injection, schedule: Q01DX001 (ip), vehicle: saline); 96 % of control and 111 % of control (dose: 10.0 mg/kg/injection, schedule: Q01DX Z (ip), vehicle: saline). In addition, the T/C (dose: 20.0 mg/kg/injection, schedule: Q01DX001 (ip), vehicle: saline) was 118 % of control; the T/C (dose: 20.0 mg/kg/injection, schedule: Q01DX009 (ip), vehicle: saline) was 111 % of control; the T/C (dose: 20.0 mg/kg/injection, schedule: Q01DX Z (ip), vehicle: saline) is 103 % of control; the T/C (dose: 40.0 mg/kg/injection, schedule: Q01DX Z (ip), vehicle: saline) is 178 % of control; the T/C (dose: 50.0 mg/kg/injection, schedule: Q01DX009 (ip), vehicle: saline) is 100 % of control; the T/C (dose: 75.0 mg/kg/injection, schedule: Q01DX001 (ip), vehicle: saline) is 186 % of control. For the same compound, the T/C is, setting by setting: (dose: 75.0 mg/kg/injection, schedule: Q01DX009 (ip), vehicle: saline) 92 % of control; (dose: 150.0 mg/kg/injection, schedule: Q01DX001 (ip), vehicle: saline) 112 % of control.
For the compound `CCCCSc1cc(NS(=O)(=O)c2ccccc2)ccc1NS(=O)(=O)c1ccccc1`, the T/C is 97 % of control (dose: 100.0 mg/kg/injection, schedule: Q04DX003 (ip), vehicle: saline with Tween-80); 93 % of control (dose: 200.0 mg/kg/injection, schedule: Q04DX003 (ip), vehicle: saline with Tween-80); 95 % of control (dose: 400.0 mg/kg/injection, schedule: Q04DX003 (ip), vehicle: saline with Tween-80).

The values are drawn from PubChem BioAssay AID248 (DTP/NCI, 2004).
